Experimental findings from US12338220B2, “Antiviral pyrazolopiridinone compounds” (Novartis AG, priority 2019, dated 2025) are described below.

A word on the IC50: it is the concentration that inhibits the measured activity by half. A word on the EC50: it is the concentration giving half of the maximal effect.

SMILES strings stand for the structures. Where two headings read alike, the source gives them in different places.

The target of experiment [1] is CMV-polymerase (Human cytomegalovirus (strain AD169) (HHV-5) (Human herpesvirus 5), UniProt P08546). The experiment can be described thus: biochemical.
For experiment [2], the target named is HSV-polymerase (Human herpesvirus 1 (strain 17) (HHV-1) (Human herpes simplex virus 1), UniProt P04293). As to the kind of experiment: biochemical.
The subject of experiment [3] is CMV. As to the kind of experiment: microbe, parasite or virus in culture. It is filed as cell-based. The note with it: Human betaherpesvirus 5, 72 h, read-out: CMV-Luc Cellular EC50, NN-NHDF cells, MOI 1, 72 hrs.
[4] abbreviates: CMV-polymerase Biochemical IC50.
[5] abbreviates: read-out: CMV-polymerase Biochemical IC50.

For `Cn1nc(C(=O)NCc2ccc(Cl)nc2)c2c1C(=O)N(CC1(S(=O)(=O)C3CC3)CC1)CC2` [Example 7, N-((6-Chloropyridin-3-yl)methyl)-6-((1-(cyclopropylsulfonyl)cyclopropyl)methyl)-1-methyl-7-oxo-4,5,6,7-tetrahydro-1H-pyrazolo[3,4-c]pyridine-3-carboxamide], the IC50 in experiment [1] (setting [4]) was 56 nM; in experiment [2], 861 nM. Further, in experiment [3], the EC50 was determined as 534 nM.
The matching figures for `Cn1nc(C2=NO[C@H](c3ccc(C#N)cc3)C2)c2c1C(=O)N(CC1(S(=O)(=O)C3CC3)CC1)CC2` [Example 33, (S)-4-(3-(6-((1-(cyclopropylsulfonyl)cyclopropyl)methyl)-1-methyl-7-oxo-4,5,6,7-tetrahydro-1H-pyrazolo[3,4-c]pyridin-3-yl)-4,5-dihydroisoxazol-5-yl)benzonitrile]: 1190 nM, more than 25000 nM and 9940 nM.
The matching figures for `[2H]C([2H])(O)C(C)(C)S(=O)(=O)C1(CN2CCc3c(C(=O)NCc4ccc(C#N)cc4)nn(C)c3C2=O)CC1` [Example 56, N-(4-Cyanobenzyl)-6-((1-((1-hydroxy-2-methylpropan-2-yl-1,1-d2)sulfonyl)cyclopropyl)methyl)-1-methyl-7-oxo-4,5,6,7-tetrahydro-1H-pyrazolo[3,4-c]pyridine-3-carboxamide]: 1 nM, 17 nM and 21 nM.
Regarding `C[C@@H](NC(=O)c1nn(C)c2c1CCN(CC1(S(=O)(=O)C(C)(CO)CO)CC1)C2=O)c1ccc(Cl)cc1` [Example 178, (R)-N-(1-(4-Chlorophenyl)ethyl)-6-((1-((1,3-dihydroxy-2-methylpropan-2-yl)sulfonyl)cyclopropyl)methyl)-1-methyl-7-oxo-4,5,6,7-tetrahydro-1H-pyrazolo[3,4-c]pyridine-3-carboxamide], the concentration for half-maximal inhibition (IC50) in experiment [1] (setting [5]) turned out to be 240 nM; in experiment [2] it was 8060 nM. Further, the EC50 in experiment [3] came out at 9720 nM.
As to `CC(O)Cn1nc(C(=O)NCc2ccc(C#N)cc2)c2c1C(=O)N(CC1(S(=O)(=O)C3CC3)CC1)CC2` (single isomer, unassigned) [Example 225, (R)- or (S)-N-(4-cyanobenzyl)-6-((1-(cyclopropylsulfonyl)cyclopropyl)methyl)-1-(2-hydroxypropyl)-7-oxo-4,5,6,7-tetrahydro-1H-pyrazolo[3,4-c]pyridine-3-carboxamide], the IC50 in experiment [1] (setting [4]) was found to be 4 nM; in experiment [2], 90 nM. Further, the concentration for a half-maximal effect (EC50) in experiment [3] was 63 nM.
With `CC1Cc2c(C(=O)NCc3ccc(C#N)cc3)nn(C)c2C(=O)N1CC1(S(C)(=O)=O)CC1` (single isomer, unassigned) [Example 42, (R)- or (S)-N-(4-cyanobenzyl)-1,5-dimethyl-6-((1-(methylsulfonyl)cyclopropyl)methyl)-7-oxo-4,5,6,7-tetrahydro-1H-pyrazolo[3,4-c]pyridine-3-carboxamide], the half-inhibitory concentration (IC50) in experiment [1] (setting [4]) was 149 nM; in experiment [2] it was 2000 nM.
In the case of `Cn1nc(C(=O)NCc2ccc(F)cc2)c2c1C(=O)N(CC1(S(=O)(=O)C(C)(C)COCCN)CC1)CC2` [Example 94, 6-((1-((1-(2-aminoethoxy)-2-methylpropan-2-yl)sulfonyl)cyclopropyl)methyl)-N-(4-fluorobenzyl)-1-methyl-7-oxo-4,5,6,7-tetrahydro-1H-pyrazolo[3,4-c]pyridine-3-carboxamide], the IC50 in experiment [1] (setting [5]) was found to be 9 nM; in experiment [2] it was 54 nM. For the same compound, in experiment [3], the EC50 was determined as 22 nM.
Consider `CC(O)COCC(C)(C)S(=O)(=O)C1(CN2CCc3c(C(=O)NCc4ccc(C#N)cc4)nn(C)c3C2=O)CC1` (single isomer, unassigned) [Example 90, (R)- or (S)-N-(4-Cyanobenzyl)-6-((1-((1-(2-hydroxypropoxy)-2-methylpropan-2-yl)sulfonyl)cyclopropyl)methyl)-1-methyl-7-oxo-4,5,6,7-tetrahydro-1H-pyrazolo[3,4-c]pyridine-3-carboxamide], for which the IC50 in experiment [1] (setting [4]) amounted to 7 nM; in experiment [2], 97 nM. Moreover, the EC50 in experiment [3] worked out at 58 nM.
On the same counts, the results for `CC(=O)NCC(C)(C)S(=O)(=O)C1(CN2CCc3c(C(=O)NCc4ccc(C#N)cc4)nn(C)c3C2=O)CC1` [Example 72, 6-((1-((1-Acetamido-2-methylpropan-2-yl)sulfonyl)cyclopropyl)methyl)-N-(4-cyanobenzyl)-1-methyl-7-oxo-4,5,6,7-tetrahydro-1H-pyrazolo[3,4-c]pyridine-3-carboxamide] are 2 nM, 51 nM and 83 nM.
Consider `Cn1nc(C(=O)NCc2ccc(Cl)cc2)c2c1C(=O)N(CC1(S(=O)(=O)C(C)(C)COCCN)CC1)CC2` [Example 93, 6-((1-((1-(2-Aminoethoxy)-2-methylpropan-2-yl)sulfonyl)cyclopropyl)methyl)-N-(4-chlorobenzyl)-1-methyl-7-oxo-4,5,6,7-tetrahydro-1H-pyrazolo[3,4-c]pyridine-3-carboxamide], for which the IC50 in experiment [1] (setting [5]) stood at 1 nM; in experiment [2], 25 nM. Further, the EC50 in experiment [3] came to 5 nM.
Turning to `Cn1nc(C(=O)NCc2ccc(C#N)cc2)c2c1C(=O)N(CC1(S(=O)(=O)C(C)(C)C(O)C(C)(C)N)CC1)CC2` (single isomer, unassigned) [Example 212, (R)- or (S)-6-((1-((4-Amino-3-hydroxy-2,4-dimethylpentan-2-yl)sulfonyl)cyclopropyl)methyl)-N-(4-cyanobenzyl)-1-methyl-7-oxo-4,5,6,7-tetrahydro-1H-pyrazolo[3,4-c]pyridine-3-carboxamide], the IC50 was found to be 3 nM in experiment [1] (setting [4]) and 39 nM in experiment [2].
On the same counts, the results for `CC(O)Cn1nc(C(=O)NCc2ccc(C#N)cc2)c2c1C(=O)N(CC1(S(=O)(=O)C3CC3)CC1)CC2` (single isomer, unassigned) [Example 226, (R)- or (S)-N-(4-cyanobenzyl)-6-((1-(cyclopropylsulfonyl)cyclopropyl)methyl)-1-(2-hydroxypropyl)-7-oxo-4,5,6,7-tetrahydro-1H-pyrazolo[3,4-c]pyridine-3-carboxamide] are 2 nM and 101 nM.
Take `CC1=NOC(C(C)(C)S(=O)(=O)C2(CN3CCc4c(C(=O)NCc5ccc(C#N)cc5)nn(C)c4C3=O)CC2)C1` (single isomer, unassigned) [Example 111, (R)- or (S)-N-(4-Cyanobenzyl)-1-methyl-6-((1-((2-(3-methyl-4,5-dihydroisoxazol-5-yl)propan-2-yl)sulfonyl)cyclopropyl)methyl)-7-oxo-4,5,6,7-tetrahydro-1H-pyrazolo[3,4-c]pyridine-3-carboxamide]: the figures for the IC50 in experiment [1] (setting [5]) and in experiment [2] were 5 nM and 148 nM, respectively.
On the same counts, the results for `CC1=NOC(C(C)(C)S(=O)(=O)C2(CN3CCc4c(C(=O)NCc5ccc(C#N)cc5)nn(C)c4C3=O)CC2)C1` (single isomer, unassigned) [Example 112, (R)- or (S)-N-(4-Cyanobenzyl)-1-methyl-6-((1-((2-(3-methyl-4,5-dihydroisoxazol-5-yl)propan-2-yl)sulfonyl)cyclopropyl)methyl)-7-oxo-4,5,6,7-tetrahydro-1H-pyrazolo[3,4-c]pyridine-3-carboxamide] are 2 nM and 89 nM.
Take `CC(O)CC(C)(C)S(=O)(=O)C1(CN2CCc3c(C(=O)NCc4ccc(C#N)cc4)nn(C)c3C2=O)CC1` (single isomer, unassigned) [Example 116, (R)- or (S)-N-(4-Cyanobenzyl)-6-((1-((4-hydroxy-2-methylpentan-2-yl)sulfonyl)cyclopropyl)methyl)-1-methyl-7-oxo-4,5,6,7-tetrahydro-1H-pyrazolo[3,4-c]pyridine-3-carboxamide]: the figures for the IC50 in experiment [1] (setting [4]) and in experiment [2] were 2 nM and 48 nM, respectively.
`Cn1nc(C(=O)NCc2ccc(C#N)cc2)c2c1C(=O)N(CC1(S(=O)(=O)C(C)(C)COC(F)CN)CC1)CC2` (single isomer, unassigned) [Example 82, (R)- or (S)-6-((1-((1-(2-amino-1-fluoroethoxy)-2-methylpropan-2-yl)sulfonyl)cyclopropyl)methyl)-N-(4-cyanobenzyl)-1-methyl-7-oxo-4,5,6,7-tetrahydro-1H-pyrazolo[3,4-c]pyridine-3-carboxamide]: the concentration for half-maximal inhibition (IC50) came out at 2 nM in experiment [1] (setting [5]) and 82 nM in experiment [2].
As for `COCC(C)(CO)S(=O)(=O)C1(CN2CCc3c(C(=O)NCc4ccc(C#N)cc4)nn(C)c3C2=O)CC1` (single isomer, unassigned) [Example 182, (R)- or (S)-N-(4-Cyanobenzyl)-6-((1-((1-hydroxy-3-methoxy-2-methylpropan-2-yl)sulfonyl)cyclopropyl)methyl)-1-methyl-7-oxo-4,5,6,7-tetrahydro-1H-pyrazolo[3,4-c]pyridine-3-carboxamide], the IC50 was determined as 2 nM in experiment [1] (setting [4]) and 46 nM in experiment [2].
On the same counts, the results for `CC(O)COCC(C)(C)S(=O)(=O)C1(CN2CCc3c(C(=O)NCc4ccc(C#N)cc4)nn(C)c3C2=O)CC1` (single isomer, unassigned) [Example 91, (R)- or (S)-N-(4-Cyanobenzyl)-6-((1-((1-(2-hydroxypropoxy)-2-methylpropan-2-yl)sulfonyl)cyclopropyl)methyl)-1-methyl-7-oxo-4,5,6,7-tetrahydro-1H-pyrazolo[3,4-c]pyridine-3-carboxamide] are 5 nM and 69 nM.
The matching figures for `Cn1nc(C(=O)NCc2ccc(C#N)cc2)c2c1C(=O)N(CC1(S(=O)(=O)C(C)(C)C(O)C(C)(C)N)CC1)CC2` (single isomer, unassigned) [Example 211, (R)- or (S)-6-((1-((4-Amino-3-hydroxy-2,4-dimethylpentan-2-yl)sulfonyl)cyclopropyl)methyl)-N-(4-cyanobenzyl)-1-methyl-7-oxo-4,5,6,7-tetrahydro-1H-pyrazolo[3,4-c]pyridine-3-carboxamide]: 9 nM and 77 nM.
